For assay [1], the target named is T1, human adenosine A1 receptors (Homo sapiens, UniProt P30542).
T1 construct: expressed in transfected cells; host or cells: CHO-K1
T1 sequence (P30542 1-326): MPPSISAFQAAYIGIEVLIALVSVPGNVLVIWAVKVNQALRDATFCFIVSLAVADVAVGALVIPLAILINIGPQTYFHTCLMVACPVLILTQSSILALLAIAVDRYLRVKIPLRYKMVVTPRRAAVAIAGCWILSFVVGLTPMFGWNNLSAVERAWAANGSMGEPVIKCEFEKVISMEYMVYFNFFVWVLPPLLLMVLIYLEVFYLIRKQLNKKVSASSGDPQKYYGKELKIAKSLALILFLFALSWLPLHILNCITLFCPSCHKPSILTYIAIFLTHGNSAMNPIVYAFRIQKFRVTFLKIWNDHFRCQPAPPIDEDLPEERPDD
As to the kind of experiment: Adenosine receptor binding: binding affinities at hA1 receptors ([3H]DPCPX displacement). Particulars: for Ki: read-out: Binding Affinity hA1-Ki; for Binding Selectivity A1/A2a: ratio of Ki values. Here is the method:
Adenosine Receptor Binding: Binding Affinities at hA1 Receptors
The resultant homogenate was kept for immediate use in the binding.
(§1) Binding assays were performed in a total volume of 250 μL, containing [^3H]-DPCPX (3.0 nM), membranes and additional drugs. Total binding was determined using drug dilution buffer (50 mM Tris-HCl pH:7.5, 10 mM MgCl2, 5% DMSO). Non-specific binding was determined using 300 μM N6-cyclohexyladenosine (CHA). […] Filters were left to dry overnight, and Microscint-0 scintillation fluid was then added to the filters. The filters were then left for at least 2 hours before the radioactivity was assessed using a Canberra Packard TopCount microplate scintillation counter.
To determine the free ligand concentration, three vials were counted with 25 μL of [^3H]DPCPX containing 4 mL of Ultima-Gold MV scintillant on a Beckman LS6500 multi-purpose scintillation counter.
(§2) Data was analysed using a 4 parameter logistical equation and non-linear regression which yields affinity constants (pIC50), and slope parameters:
(§3) [formula] where E is the quantity of binding and [A] is the competitor concentration. The Ki is then determined using the Cheng-Prusoff equation: […]

In assay [2] the target is T2, human adenosine A2A receptors (Homo sapiens, UniProt P29274).
T2 construct: host or cells: HEK-293
As to the kind of experiment: Adenosine receptor binding: binding affinities at hA2A receptors ([3H]CGS-21680 displacement). To be noted: read-out: Binding Affinity hA2A-Ki. The protocol: Adenosine Receptor Binding: Binding Affinities at hA2A Receptors
as §1, with “The resultant homogenate was kept for immediate use in the binding assay. Binding” for “Binding”, “[^3H]-CGS21680 (20.0” for “[^3H]-DPCPX (3.0”, “pH 7.5,” for “pH:7.5,”, “CHA.” for “N6-cyclohexyladenosine (CHA).”
To determine the free ligand concentration, three vials were counted with 25 μL of [^3H]CGS21680 containing 4 mL of Ultima-Gold MV scintillant on a Beckman LS6500 multi-purpose scintillation counter.
as §2, §3

The target of a further assay is T3, hA2B receptors (Homo sapiens, UniProt P29275).
T3 construct: host or cells: HEK-293
T3 sequence (P29275 1-332): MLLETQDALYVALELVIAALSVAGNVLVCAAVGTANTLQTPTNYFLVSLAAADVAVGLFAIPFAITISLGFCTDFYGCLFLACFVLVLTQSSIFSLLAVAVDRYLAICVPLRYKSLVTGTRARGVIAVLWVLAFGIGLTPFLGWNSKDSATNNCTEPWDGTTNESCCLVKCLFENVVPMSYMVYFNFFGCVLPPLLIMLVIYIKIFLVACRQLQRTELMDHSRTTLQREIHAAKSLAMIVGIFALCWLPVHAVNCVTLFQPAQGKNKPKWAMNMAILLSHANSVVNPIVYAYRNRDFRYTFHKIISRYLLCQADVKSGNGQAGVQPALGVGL
Kind of assay: Adenosine receptor binding: binding affinities at hA2B receptors ([3H]-ZM241385 displacement). Particulars: for Ki: read-out: Binding Affinity hA2B-Ki; for Binding Selectivity A2b/A2a: ratio of Ki values.

Assay [3] addresses T4, human adenosine A3 receptors (Homo sapiens, UniProt P0DMS8).
T4 construct: expressed in transfected cells; host or cells: CHO-K1
T4 sequence (P0DMS8 1-318): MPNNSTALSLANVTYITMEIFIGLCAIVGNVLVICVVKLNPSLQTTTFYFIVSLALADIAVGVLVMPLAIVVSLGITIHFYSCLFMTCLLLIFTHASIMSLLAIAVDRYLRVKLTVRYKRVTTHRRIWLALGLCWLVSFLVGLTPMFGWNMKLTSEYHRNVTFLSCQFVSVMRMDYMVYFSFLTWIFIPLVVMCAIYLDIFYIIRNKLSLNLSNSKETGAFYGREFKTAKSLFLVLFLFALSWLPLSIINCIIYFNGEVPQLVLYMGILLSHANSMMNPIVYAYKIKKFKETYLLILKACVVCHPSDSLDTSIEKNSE
Kind of assay: Adenosine receptor binding: binding affinities at hA3 receptors ([125I]-AB MECA displacement). To be noted: for Ki: read-out: Binding Affinity hA3-Ki; for Binding Selectivity A3/A2a: ratio of Ki values. The protocol: [formula] Adenosine Receptor Binding: Binding Affinities at hA3 Receptors
The resultant homogenate was kept for immediate use in the binding assay.
Total binding was determined using drug dilution buffer (50 mM Tris-HCl pH 7.5, 10 mM MgCl2, 5% DMSO). Non-specific binding was determined using 10 μM IB-MECA. […] Filters were left to dry overnight, and Microscint-0 scintillation fluid was then added to the filters. The filters were then left for at least 2 hours before the radioactivity was assessed using a Canberra Packard TopCount microplate scintillation counter.
as §2, §3

Setting [4] is: Table 2, comparative compounds of WO 02/055083.
[5] abbreviates: Table 1, [3H]DPCPX displacement, CHO-K1 membranes.
The mark [6] stands for this setting: Table 1, [3H]CGS-21680 displacement, HEK-293 membranes.
Where [7] appears, read: Table 1, [3H]-ZM241385 displacement, HEK-293 membranes.
The mark [8] stands for this setting: Table 1, [125I]-AB MECA displacement, CHO-K1 membranes.

Like-named read-outs stand apart in the source and are kept apart here.

As usually defined, the Ki is the equilibrium dissociation constant of an inhibitor or competing ligand from its target.

T2 sequence (P29274 whole entry): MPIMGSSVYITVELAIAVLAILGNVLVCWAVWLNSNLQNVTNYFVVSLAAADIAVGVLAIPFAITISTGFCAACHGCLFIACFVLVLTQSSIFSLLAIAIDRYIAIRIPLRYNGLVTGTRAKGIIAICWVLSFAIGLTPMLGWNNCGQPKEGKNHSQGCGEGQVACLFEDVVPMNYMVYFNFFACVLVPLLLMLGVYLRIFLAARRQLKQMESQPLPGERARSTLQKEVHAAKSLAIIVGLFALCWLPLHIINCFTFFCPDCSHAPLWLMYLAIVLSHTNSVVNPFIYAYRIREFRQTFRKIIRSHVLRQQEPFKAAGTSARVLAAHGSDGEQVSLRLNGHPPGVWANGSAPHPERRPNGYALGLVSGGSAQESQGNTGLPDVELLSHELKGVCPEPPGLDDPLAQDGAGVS

Consider `CC(C)COCc1cccc(Cn2nnc3c(-c4ccco4)nc(N)nc32)n1` [WO 02/055083 Example 217, 7-(2-furyl)-3-(6-isobutyloxymethyl-2-pyridylmethyl)-3H-[1,2,3]triazolo[4,5-d]pyrimidine-5-amine, reference compound], for which the Ki turned out to be 153 nM in assay [1] (setting [4]), 2.9 nM in assay [2] (setting [4]), 382 nM on hA2B receptors (setting [4]) and 475 nM in assay [3] (setting [4]). Further, the “Binding Selectivity A1/A2a” value in assay [1] (Table 2) was determined as 53. In addition, the “Binding Selectivity A2b/A2a” value on hA2B receptors (Table 2) is 131. For the same compound, in assay [3] (Table 2), the “Binding Selectivity A3/A2a” value was determined as 163.

As to `Cl.Nc1nc(-c2ccco2)c2nnn(Cc3cccc(CO)n3)c2n1` [WO 02/055083 Example 213, 7-(2-furyl)-3-(6-hydroxymethyl-2-pyridylmethyl)-3H-[1,2,3]triazolo[4,5-d]pyrimidine-5-amine hydrochloride, reference compound], the Ki in assay [1] (setting [4]) came to 585 nM; in assay [2] (setting [4]) it was 2.7 nM; at hA2B receptors (setting [4]), 271 nM; in assay [3] (setting [4]), 1700 nM. In addition, the “Binding Selectivity A1/A2a” value in assay [1] (Table 2) came to 216. In addition, the “Binding Selectivity A2b/A2a” value at hA2B receptors (Table 2) came out at 100. The “Binding Selectivity A3/A2a” value in assay [3] (Table 2) came to 625.

For the compound `COc1cccc(-c2nc(N)nc3c2nnn3Cc2cccc(C3(O)CCC3)n2)c1` [Example 17, 7-(3-methoxyphenyl)-3-(6-[1-hydroxycyclobutyl]pyrid-2-ylmethyl)-3H-[1,2,3]triazolo[4,5-d]pyrimidin-5-amine], the Ki worked out at 386 nM in assay [1] (setting [5]), 9.9 nM in assay [2] (setting [6]), 4690 nM on hA2B receptors (setting [7]) and 1950 nM in assay [3] (setting [8]). Besides, the “Binding Selectivity A1/A2a” value in assay [1] (Table 1) came to 39. The “Binding Selectivity A2b/A2a” value on hA2B receptors (Table 1) was 472. Further, the “Binding Selectivity A3/A2a” value in assay [3] (Table 1) amounted to 196.

Regarding `N#Cc1cccc(-c2nc(N)nc3c2nnn3Cc2cccc(C3(O)CCCC3)n2)c1` [Example 21, 7-(3-cyanophenyl)-3-(6-[1-hydroxy-1-cyclopentyl]pyrid-2-ylmethyl)-3H-[1,2,3]triazolo[4,5-d]pyrimidin-5-amine], the Ki was 2390 nM in assay [1] (setting [5]), 23.9 nM in assay [2] (setting [6]) and 2050 nM on hA2B receptors (setting [7]). For the same compound, in assay [1] (Table 1), the “Binding Selectivity A1/A2a” value turned out to be 100. Also, the “Binding Selectivity A2b/A2a” value at hA2B receptors (Table 1) is reported as 86.

As to `Nc1nc(-c2ccccc2)c2nnn(Cc3cccc(C4(O)CCC4)n3)c2n1` [Example 11, 7-phenyl-3-(6-[1-hydroxycyclobutyl]pyrid-2-ylmethyl)-3H-[1,2,3]triazolo[4,5-d]pyrimidin-5-amine], the Ki in assay [1] (setting [5]) was found to be 320 nM; in assay [2] (setting [6]), 5.2 nM; on hA2B receptors (setting [7]) it was 3270 nM; in assay [3] (setting [8]), 4300 nM. For the same compound, in assay [1] (Table 1), the “Binding Selectivity A1/A2a” value stood at 62. Also, on hA2B receptors (Table 1), the “Binding Selectivity A2b/A2a” value amounted to 634. In addition, in assay [3] (Table 1), the “Binding Selectivity A3/A2a” value is recorded as 836.

In the case of `Nc1nc(-c2ccccc2)c2nnn(Cc3cccc(CO[C@H]4CCOC4)n3)c2n1` [Example 7, S-7-phenyl-3-(6-[tetrahydrofuran-3-yl]oxymethylpyrid-2-ylmethyl)-3H-[1,2,3]triazolo[4,5-d]pyrimidin-5-amine], the figures for the Ki (in assay [1] (setting [5]); in assay [2] (setting [6]); at hA2B receptors (setting [7])) were 731 nM, 13.4 nM and 1240 nM, respectively. Moreover, the “Binding Selectivity A1/A2a” value in assay [1] (Table 1) was found to be 54. In addition, the “Binding Selectivity A2b/A2a” value at hA2B receptors (Table 1) is given as 93. Moreover, in assay [3] (Table 1), the “Binding Selectivity A3/A2a” value amounted to 634.

Regarding `N#Cc1cccc(-c2nc(N)nc3c2nnn3Cc2cccc(C3(O)CCC3)n2)c1` [Example 23, 7-(3-cyanophenyl)-3-(6-[1-hydroxycyclobutyl]pyrid-2-ylmethyl)-3H-[1,2,3]triazolo[4,5-d]pyrimidin-5-amine], the results for the Ki (in assay [1] (setting [5]); in assay [2] (setting [6]); on hA2B receptors (setting [7])) were 1330 nM, 14.8 nM and 6820 nM, respectively. The “Binding Selectivity A1/A2a” value in assay [1] (Table 1) was 90. On hA2B receptors (Table 1), the “Binding Selectivity A2b/A2a” value is 462.

Source of the values: patent US11466019B2, “Triazolo[4,5-d] pyramidine derivatives and their use as purine receptor antagonists” (Vernalis (R&D) Limited, priority 2008, dated 2022).
